Laboratory results published in patent US20050182065A1, “Method of stimulating hair growth” (priority 2004, published 2005).

Key:
C3H/HeN mice [1] = assay: Telogen Conversion Assay; type: in vivo; details: for Results: number of days following initiation of treatment when hair growth appeared in 50% of the mice: topical once daily for 5 days, propylene glycol 30%/ethanol 70%
Text: The Telogen Conversion Assay measures the potential of a compound (hereinafter referred to as the “test compound”) to convert mice in the resting stage of the hair growth cycle (“telogen”) to the active stage of the hair growth cycle (“anagen”). This assay takes advantage of the fact that the fur (i.e. hair) of 40-day-old C3H/HeN mice is in the telogen phase. This phase usually continues until about 75 days of age, at which point, anagen naturally occurs in these animals. In this assay, selected areas of 40-day-old mice (approximate) are shaved, contacted with a test agent, or a control, and the difference in the rate of hair growth is measured (i.e. induction of the anagen phase). The first sign of anagen is the darkening of skin color as melanocytes in the follicles start to synthesize melanin, in preparation for the production of pigmented hairs.
Female C3H/HeN mice, 7 weeks old (Charles River Laboratories, Raleigh, N.C.) were used for the study. Fur was clipped from the dorsal region of the mice prior to initiation of the study. Only mice with pink skin, a visual indication of the telogen phase, were selected for inclusion in the study.
Test compounds (from Table A) were dissolved in a vehicle consisting of propylene glycol (30%) and ethanol (70%). A test compound dissolved in vehicle, or a vehicle control (30/70 propylene glycol/ethanol, unless otherwise specified) was applied topically to the clipped dorsal region of the mice in each test group (7-10 mice) in a volume of 20 μl/cm^2. Treatments were applied once daily for 5 days.
The treatment area was observed and graded for signs of hair growth. The hair growth response was quantified by recording, for each animal, the day on which signs of hair growth first appeared over the treated area. The first sign of anagen was the darkening of skin color as melanocytes in the follicles started to synthesize melanin. The response time was measured as the number of days between initiation of treatment and when hair growth was present in 50% of the mice in a given group.
The results are reported as the number of days following initiation of treatment when hair growth appeared in 50% of the mice in a given group.

C3H/HeN mice [2] = assay: Telogen Conversion Assay; type: in vivo; details: Experiment 8; for Results: number of days following initiation of treatment when hair growth appeared in 50% of the mice: topical once daily for 5 days, solvent polyethylene glycol 30 v/v %, ethanol 30 v/v %, transcutanol 40 v/v %, vehicle 28

Cn1nc(O[C@@H]2c3cc(S(=O)(=O)c4cccc(O)c4)ccc3OC(C)(C)[C@@]2(C)O)ccc1=O [Compound #1, (3S,4R)-3,4-dihydro-4-(2,3-dihydro-2-methyl-3-oxopyridazin-6-yl)oxy-3-hydroxy-6-(3-hydroxyphenyl)sulphonyl-2,2,3-trimethyl-2H-benzo[b]pyran]
Relative efficacy in the telogen conversion assay (summary) (C3H/HeN mice [1]; 15 experiments, compared with the other potassium channel openers of Table A): showed the highest relative efficacy in the model | Results: number of days following initiation of treatment when hair growth appeared in 50% of the mice (C3H/HeN mice [1]; Experiment 1, 1.0 w/v %, terminated early): >35 days | Induction of anagen (conclusion in words) (C3H/HeN mice [1]; Experiment 2): exhibited signs of anagen sooner than those receiving Compound #6 | Results: number of days following initiation of treatment when hair growth appeared in 50% of the mice (C3H/HeN mice [1]; Experiment 2, 0.3 w/v %, vehicle 25): 11 days | Results: number of days following initiation of treatment when hair growth appeared in 50% of the mice (C3H/HeN mice [1]; Experiment 2, 1.0 w/v %, vehicle 25): 11 days | Results: number of days following initiation of treatment when hair growth appeared in 50% of the mice (C3H/HeN mice [1]; Experiment 3, 0.1 w/v %, terminated early): >35 days | Results: number of days following initiation of treatment when hair growth appeared in 50% of the mice (C3H/HeN mice [1]; Experiment 3, 0.3 w/v %, terminated early): >35 days | Results: number of days following initiation of treatment when hair growth appeared in 50% of the mice (C3H/HeN mice [1]; Experiment 3, 1.0 w/v %, terminated early): >35 days | Results: number of days following initiation of treatment when hair growth appeared in 50% of the mice (C3H/HeN mice [1]; Experiment 4, 0.3 w/v %, vehicle >33): 26 days | Results: number of days following initiation of treatment when hair growth appeared in 50% of the mice (C3H/HeN mice [1]; Experiment 4, 1.0 w/v %, vehicle >33): 26 days | Induction of anagen (conclusion in words) (C3H/HeN mice [1]; Experiment 4, terminated early): induced anagen at each of the test concentrations | Results: number of days following initiation of treatment when hair growth appeared in 50% of the mice (C3H/HeN mice [1]; Experiment 5, 0.03 w/v %, vehicle >35): >35 days | Results: number of days following initiation of treatment when hair growth appeared in 50% of the mice (C3H/HeN mice [1]; Experiment 5, 0.1 w/v %, vehicle >35): >35 days | Results: number of days following initiation of treatment when hair growth appeared in 50% of the mice (C3H/HeN mice [1]; Experiment 5, 0.3 w/v %, vehicle >35): >35 days | Results: number of days following initiation of treatment when hair growth appeared in 50% of the mice (C3H/HeN mice [1]; Experiment 6, 0.003 w/v %, vehicle >35): >35 days | Results: number of days following initiation of treatment when hair growth appeared in 50% of the mice (C3H/HeN mice [1]; Experiment 6, 0.03 w/v %, vehicle >35): >35 days | Results: number of days following initiation of treatment when hair growth appeared in 50% of the mice (C3H/HeN mice [1]; Experiment 6, 0.3 w/v %, vehicle >35): 28 days | Induction of anagen (conclusion in words) (C3H/HeN mice [1]; Experiment 6, terminated early, up to day 35): induced anagen despite the early termination of the experiment | Results: number of days following initiation of treatment when hair growth appeared in 50% of the mice (C3H/HeN mice [1]; Experiment 7, 0.003 w/v %, vehicle 29): 26 days | Results: number of days following initiation of treatment when hair growth appeared in 50% of the mice (C3H/HeN mice [1]; Experiment 7, 0.03 w/v %, vehicle 29): 24 days | Results: number of days following initiation of treatment when hair growth appeared in 50% of the mice (C3H/HeN mice [1]; Experiment 7, 0.3 w/v %, vehicle 29): 19 days | Induction of anagen (conclusion in words) (C3H/HeN mice [1]; Experiment 7, proceeded to completion): induced anagen at all of the concentrations tested | Results: number of days following initiation of treatment when hair growth appeared in 50% of the mice (C3H/HeN mice [1]; Experiment 8, 1.0 w/v %, vehicle >35): 18 days | Results: number of days following initiation of treatment when hair growth appeared in 50% of the mice (C3H/HeN mice [1]; Experiment 9, 0.03 w/v %, terminated early): >33 days | Results: number of days following initiation of treatment when hair growth appeared in 50% of the mice (C3H/HeN mice [1]; Experiment 9, 0.3 w/v %, terminated early): >33 days | Results: number of days following initiation of treatment when hair growth appeared in 50% of the mice (C3H/HeN mice [1]; Experiment 9, 1.0 w/v %, terminated early): >33 days | Results: number of days following initiation of treatment when hair growth appeared in 50% of the mice (C3H/HeN mice [1]; Experiment 10, 0.1 w/v %, terminated early): >34 days | Results: number of days following initiation of treatment when hair growth appeared in 50% of the mice (C3H/HeN mice [1]; Experiment 10, 0.3 w/v %, terminated early): >34 days | Induction of anagen (conclusion in words) (C3H/HeN mice [1]; Experiment 11): induced anagen | Results: number of days following initiation of treatment when hair growth appeared in 50% of the mice (C3H/HeN mice [1]; Experiment 11, 0.3 w/v %, vehicle 56): 25 days | Induction of anagen (conclusion in words) (C3H/HeN mice [1]; Experiment 12): did not induce anagen | Results: number of days following initiation of treatment when hair growth appeared in 50% of the mice (C3H/HeN mice [1]; Experiment 12, 1.0 w/v %, vehicle 37): 39 days | Induction of anagen (conclusion in words) (C3H/HeN mice [1]; Experiment 13): induced anagen | Results: number of days following initiation of treatment when hair growth appeared in 50% of the mice (C3H/HeN mice [1]; Experiment 13, 1.0 w/v %, vehicle 28): 14 days | Induction of anagen (conclusion in words) (C3H/HeN mice [1]; Experiment 14): induced anagen | Results: number of days following initiation of treatment when hair growth appeared in 50% of the mice (C3H/HeN mice [1]; Experiment 14, 1.0 w/v %, vehicle 29): 25 days | Results: number of days following initiation of treatment when hair growth appeared in 50% of the mice (C3H/HeN mice [1]; Experiment 15, 0.3 w/v %, vehicle >30): 16 days | Results: number of days following initiation of treatment when hair growth appeared in 50% of the mice (C3H/HeN mice [1]; Experiment 15, 1.0 w/v %, vehicle >30): 23 days | Induction of anagen (conclusion in words) (C3H/HeN mice [1]; Experiment 15, terminated early): induced anagen at both of the concentrations tested | Results: number of days following initiation of treatment when hair growth appeared in 50% of the mice (C3H/HeN mice [2]; 0.3 w/v %): 21 days | Results: number of days following initiation of treatment when hair growth appeared in 50% of the mice (C3H/HeN mice [2]; 1.0 w/v %): 21 days | Induction of anagen (conclusion in words) (C3H/HeN mice [2]; transcutol, ethanol, polypropylene glycol vehicle): exhibited activity at all doses tested in this vehicle
